Measurements as given in publication PMC9204419, “A Toolbox for the Generation of Chemical Probes for Baculovirus IAP Repeat Containing Proteins” (Frontiers in Cell and Developmental Biology, 2022).
Values joined by “and” are separate entries in the source; they are usually repeats but may differ in a detail not shown here. Equal entries are not always repeated.

Key:
BIRC4 BIR3 = biological target: T1, BIRC4 BIR3 (Homo sapiens, UniProt P98170); experiment: NanoBRET tracer titration, BIRC4 BIR3; format: cell-based; conditions: single domain, n = 4; read-out: Tracer KD,app ± SEM, BIRC4 BIR3
T1 construct: S245 N373; expressed in transfected cells; host or cells: HEK293T
T1 sequence (P98170 245-373): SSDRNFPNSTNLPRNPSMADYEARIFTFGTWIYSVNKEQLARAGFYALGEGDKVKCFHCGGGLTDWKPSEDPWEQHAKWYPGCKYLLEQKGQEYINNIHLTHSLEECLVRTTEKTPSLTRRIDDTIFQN

BIRC5 = biological target: T2, BIRC5 (Homo sapiens, UniProt O15392); experiment: NanoBRET tracer titration, BIRC5; format: cell-based; conditions: full-length taken as single BIR domain construct, n = 4; read-out: Tracer KD,app ± SEM, BIRC5
T2 construct: M1 D142; expressed in transfected cells; host or cells: HEK293T
T2 sequence (O15392 whole entry, the tested form may be a part): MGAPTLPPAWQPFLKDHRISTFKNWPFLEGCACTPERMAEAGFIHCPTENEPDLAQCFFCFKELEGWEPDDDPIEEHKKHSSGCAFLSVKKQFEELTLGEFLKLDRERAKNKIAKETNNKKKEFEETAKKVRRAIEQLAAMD

BIRC2 BIR1 = biological target: T3, BIRC2 BIR1 (Homo sapiens, UniProt Q13490); experiment: NanoBRET tracer titration, BIRC2 BIR1; format: cell-based; conditions: single domain, n = 4; read-out: Tracer KD,app ± SEM, BIRC2 BIR1
T3 construct: D24 S134; expressed in transfected cells; host or cells: HEK293T
T3 sequence (Q13490 24-134): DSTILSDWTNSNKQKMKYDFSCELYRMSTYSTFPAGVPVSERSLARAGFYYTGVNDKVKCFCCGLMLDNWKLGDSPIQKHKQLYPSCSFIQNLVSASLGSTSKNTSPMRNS

BIRC2 BIR3 = BIRC2 BIR3 (Homo sapiens, UniProt Q13490); experiment: NanoBRET cellular target engagement, single domain BIRC2 BIR3
Sequence of BIRC2 BIR3 (Q13490 251-372): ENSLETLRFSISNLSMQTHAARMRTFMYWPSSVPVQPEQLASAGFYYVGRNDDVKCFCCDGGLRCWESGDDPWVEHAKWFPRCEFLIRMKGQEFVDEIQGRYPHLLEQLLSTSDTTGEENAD
Experimental: (§1) In brief: Constructs contained the cDNA of full-length or single domains cloned in frame with an N-terminal NanoLuc-fusion as specified in Supplementary Table S2. Plasmids were transfected into HEK293T cells using FuGENE HD (Promega, E2312) and proteins were allowed to express for 20 h. […] The corresponding transfected cells were added and reseeded at a density of 2.5^5 cells/mL after trypsinization and resuspending in Opti-MEM without phenol red (Life Technologies). […] Competitive displacement data were then graphed using GraphPad Prism 9.3 software using a normalized 3-parameter curve fit with the following equation: Y = 100/(1 + 10^(X-LogIC50)).

BIRC8 = biological target: T4, BIRC8 (Homo sapiens, UniProt Q96P09); experiment: NanoBRET cellular target engagement, full-length BIRC8
T4 sequence (Q96P09 1-236): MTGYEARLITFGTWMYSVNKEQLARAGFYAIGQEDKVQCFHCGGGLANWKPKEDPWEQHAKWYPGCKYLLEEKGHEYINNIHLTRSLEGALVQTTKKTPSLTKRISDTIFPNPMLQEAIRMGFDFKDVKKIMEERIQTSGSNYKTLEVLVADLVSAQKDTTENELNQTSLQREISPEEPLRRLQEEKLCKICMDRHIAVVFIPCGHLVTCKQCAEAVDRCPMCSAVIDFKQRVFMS

BIRC4 BIR2 = biological target: T5, BIRC4 BIR2 (Homo sapiens, UniProt P98170); experiment: NanoBRET tracer titration, BIRC4 BIR2; format: cell-based; conditions: single domain, n = 4; read-out: Tracer KD,app ± SEM, BIRC4 BIR2
T5 construct: G144 S253; expressed in transfected cells; host or cells: HEK293T
T5 sequence (P98170 144-253): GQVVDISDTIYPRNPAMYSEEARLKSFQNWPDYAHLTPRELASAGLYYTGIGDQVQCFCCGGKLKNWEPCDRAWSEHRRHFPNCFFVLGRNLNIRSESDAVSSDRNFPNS

BIRC2 BIR2 = BIRC2 BIR2 (Homo sapiens, UniProt Q13490); experiment: NanoBRET cellular target engagement, single domain BIRC2 BIR2; conditions: Tracer KD,app ± SEM, BIRC2 BIR2, single domain, n = 4
Sequence of BIRC2 BIR2 (Q13490 165-267): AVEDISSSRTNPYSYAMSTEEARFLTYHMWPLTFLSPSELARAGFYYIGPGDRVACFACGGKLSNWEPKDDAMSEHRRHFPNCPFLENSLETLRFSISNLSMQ
Experimental: as §1

BIRC3 = BIRC3 (Homo sapiens, UniProt Q13489); experiment: NanoBRET cellular target engagement, full-length BIRC3
Sequence of BIRC3 (Q13489 whole entry, the tested form may be a part): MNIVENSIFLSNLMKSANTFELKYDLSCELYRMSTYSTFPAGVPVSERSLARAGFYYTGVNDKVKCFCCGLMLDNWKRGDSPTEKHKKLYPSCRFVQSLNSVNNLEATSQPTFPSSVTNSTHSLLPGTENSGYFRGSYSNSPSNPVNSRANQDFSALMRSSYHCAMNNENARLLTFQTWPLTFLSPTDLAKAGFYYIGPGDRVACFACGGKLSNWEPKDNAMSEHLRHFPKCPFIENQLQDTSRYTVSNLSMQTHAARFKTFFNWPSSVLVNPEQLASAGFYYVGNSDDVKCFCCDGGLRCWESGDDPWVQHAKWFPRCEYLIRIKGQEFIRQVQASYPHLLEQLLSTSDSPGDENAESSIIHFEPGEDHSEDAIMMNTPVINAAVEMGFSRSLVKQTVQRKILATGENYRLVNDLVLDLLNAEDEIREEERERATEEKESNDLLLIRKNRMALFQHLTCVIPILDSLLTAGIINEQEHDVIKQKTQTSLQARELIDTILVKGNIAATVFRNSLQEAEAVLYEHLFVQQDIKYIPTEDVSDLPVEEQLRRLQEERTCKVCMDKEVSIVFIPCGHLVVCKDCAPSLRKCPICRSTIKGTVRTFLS

BIRC4 BIR1 = biological target: T6, BIRC4 BIR1 (Homo sapiens, UniProt P98170); experiment: NanoBRET tracer titration, BIRC4 BIR1; format: cell-based; conditions: single domain, n = 4; read-out: Tracer KD,app ± SEM, BIRC4 BIR1
T6 construct: N4 Q114; expressed in transfected cells; host or cells: HEK293T
T6 sequence (P98170 4-114): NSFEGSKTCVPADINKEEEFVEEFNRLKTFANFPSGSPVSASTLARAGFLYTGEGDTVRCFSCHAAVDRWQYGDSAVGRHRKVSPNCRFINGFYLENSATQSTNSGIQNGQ

BIRC4 = BIRC4 (Homo sapiens, UniProt P98170); experiment: NanoBRET cellular target engagement, full-length BIRC4
Sequence of BIRC4 (P98170 whole entry, the tested form may be a part): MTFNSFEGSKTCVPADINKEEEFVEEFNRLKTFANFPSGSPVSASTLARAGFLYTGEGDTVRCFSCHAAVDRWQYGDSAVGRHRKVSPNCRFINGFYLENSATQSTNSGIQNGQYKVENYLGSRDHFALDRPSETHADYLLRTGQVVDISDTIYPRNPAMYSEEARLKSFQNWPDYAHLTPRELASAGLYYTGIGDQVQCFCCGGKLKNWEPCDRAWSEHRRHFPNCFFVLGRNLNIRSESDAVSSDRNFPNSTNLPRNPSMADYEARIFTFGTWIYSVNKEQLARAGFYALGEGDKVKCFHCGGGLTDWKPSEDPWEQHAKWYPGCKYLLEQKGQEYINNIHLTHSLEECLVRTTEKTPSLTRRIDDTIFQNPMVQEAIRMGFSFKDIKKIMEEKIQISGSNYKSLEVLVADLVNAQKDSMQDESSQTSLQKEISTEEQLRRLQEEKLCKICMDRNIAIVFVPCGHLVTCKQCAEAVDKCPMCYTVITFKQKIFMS
Experimental: as §1

BIRC1 BIR[2] = biological target: T7, BIRC1 BIR[2] (Homo sapiens, UniProt Q13075); experiment: NanoBRET cellular target engagement, single domain BIRC1 BIR[2]; conditions: Tracer KD,app ± SEM, BIRC1 BIR[2], single domain (D139-G251), n = 4
T7 sequence (Q13075 139-251): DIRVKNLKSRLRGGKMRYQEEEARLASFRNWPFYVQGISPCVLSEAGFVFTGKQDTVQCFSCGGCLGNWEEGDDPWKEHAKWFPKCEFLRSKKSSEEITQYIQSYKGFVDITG
Experimental: as §1

BIRC7 BIR = biological target: T8, BIRC7 BIR (Homo sapiens, UniProt Q96CA5); experiment: NanoBRET cellular target engagement, single domain BIRC7 BIR; conditions: Tracer KD,app ± SEM, BIRC7 BIR, single domain, n = 4
T8 sequence (Q96CA5 70-176): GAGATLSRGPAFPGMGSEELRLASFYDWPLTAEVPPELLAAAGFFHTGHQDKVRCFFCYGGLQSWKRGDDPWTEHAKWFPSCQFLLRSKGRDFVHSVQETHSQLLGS
Experimental: as §1

BIRC1 BIR1 = biological target: T9, BIRC1 BIR1 (Homo sapiens, UniProt Q13075); experiment: NanoBRET tracer titration, BIRC1 BIR1 (third BIR domain of BIRC1); format: cell-based; conditions: third BIR domain of BIRC1 (N256-Q391), n = 4; read-out: Tracer KD,app ± SEM, BIRC1 BIR1
T9 construct: N256 Q391; expressed in transfected cells; host or cells: HEK293T
T9 sequence (Q13075 256-391): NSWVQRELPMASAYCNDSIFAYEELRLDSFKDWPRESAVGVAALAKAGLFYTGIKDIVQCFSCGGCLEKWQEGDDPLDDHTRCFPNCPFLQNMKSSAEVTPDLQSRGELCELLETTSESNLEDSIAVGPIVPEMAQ

BIRC2 = BIRC2 (Homo sapiens, UniProt Q13490); experiment: NanoBRET cellular target engagement, full-length BIRC2; conditions: Tracer K D, full-length BIRC2, full-length
Sequence of BIRC2 (Q13490 whole entry, the tested form may be a part): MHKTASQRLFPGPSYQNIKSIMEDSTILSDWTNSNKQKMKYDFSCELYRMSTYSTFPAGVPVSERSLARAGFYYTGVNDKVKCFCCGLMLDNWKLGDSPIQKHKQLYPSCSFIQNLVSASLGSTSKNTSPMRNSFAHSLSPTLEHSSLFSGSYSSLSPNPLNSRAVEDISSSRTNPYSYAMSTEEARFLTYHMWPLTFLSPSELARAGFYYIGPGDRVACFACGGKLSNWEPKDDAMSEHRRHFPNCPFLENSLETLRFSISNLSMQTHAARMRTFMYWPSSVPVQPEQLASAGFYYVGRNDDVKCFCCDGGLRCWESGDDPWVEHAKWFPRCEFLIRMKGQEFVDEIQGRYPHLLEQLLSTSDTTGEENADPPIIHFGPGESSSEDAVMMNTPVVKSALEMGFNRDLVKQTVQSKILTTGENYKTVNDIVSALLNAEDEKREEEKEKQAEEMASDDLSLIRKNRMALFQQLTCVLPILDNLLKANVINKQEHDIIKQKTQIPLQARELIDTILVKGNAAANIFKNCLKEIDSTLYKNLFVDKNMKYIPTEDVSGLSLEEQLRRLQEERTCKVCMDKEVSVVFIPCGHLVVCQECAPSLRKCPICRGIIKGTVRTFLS
Experimental: as §1

BIRC8 BIR = biological target: T10, BIRC8 BIR (Homo sapiens, UniProt Q96P09); experiment: NanoBRET cellular target engagement, single domain BIRC8 BIR
T10 sequence (Q96P09 1-90): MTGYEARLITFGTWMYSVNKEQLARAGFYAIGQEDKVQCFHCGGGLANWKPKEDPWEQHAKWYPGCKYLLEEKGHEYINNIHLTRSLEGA
Experimental: as §1

BIRC3 BIR3 = BIRC3 BIR3 (Homo sapiens, UniProt Q13489); experiment: NanoBRET cellular target engagement, single domain BIRC3 BIR3; conditions: Tracer KD,app ± SEM, BIRC3 BIR3, single domain, n = 4
Sequence of BIRC3 BIR3 (Q13489 236-360): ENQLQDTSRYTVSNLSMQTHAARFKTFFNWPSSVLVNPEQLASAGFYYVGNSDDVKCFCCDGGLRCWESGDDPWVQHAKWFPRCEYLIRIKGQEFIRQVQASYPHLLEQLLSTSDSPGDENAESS
Experimental: as §1

BIRC7 = biological target: T11, BIRC7 (Homo sapiens, UniProt Q96CA5); experiment: NanoBRET cellular target engagement, full-length BIRC7
T11 sequence (Q96CA5 1-298): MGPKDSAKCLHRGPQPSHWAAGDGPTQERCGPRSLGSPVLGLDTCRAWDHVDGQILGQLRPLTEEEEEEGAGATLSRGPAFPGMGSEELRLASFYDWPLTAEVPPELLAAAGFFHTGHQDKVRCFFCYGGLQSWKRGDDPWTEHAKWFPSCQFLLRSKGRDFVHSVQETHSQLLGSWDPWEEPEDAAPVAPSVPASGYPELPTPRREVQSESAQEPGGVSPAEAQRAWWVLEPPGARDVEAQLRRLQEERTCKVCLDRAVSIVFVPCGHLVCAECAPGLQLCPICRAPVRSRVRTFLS
Experimental: as §1

BIRC3 BIR2 = BIRC3 BIR2 (Homo sapiens, UniProt Q13489); experiment: NanoBRET cellular target engagement, single domain BIRC3 BIR2; conditions: Tracer KD,app ± SEM, BIRC3 BIR2, single domain, n = 4
Sequence of BIRC3 BIR2 (Q13489 147-253): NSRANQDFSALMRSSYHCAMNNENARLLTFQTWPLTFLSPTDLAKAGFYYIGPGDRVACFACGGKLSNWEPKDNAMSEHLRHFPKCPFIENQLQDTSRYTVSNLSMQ

BIRC3 BIR1 = biological target: T12, BIRC3 BIR1 (Homo sapiens, UniProt Q13489); experiment: NanoBRET tracer titration, BIRC3 BIR1; format: cell-based; conditions: single domain, n = 4; read-out: Tracer KD,app ± SEM, BIRC3 BIR1
T12 construct: N6 S116; expressed in transfected cells; host or cells: HEK293T
T12 sequence (Q13489 6-116): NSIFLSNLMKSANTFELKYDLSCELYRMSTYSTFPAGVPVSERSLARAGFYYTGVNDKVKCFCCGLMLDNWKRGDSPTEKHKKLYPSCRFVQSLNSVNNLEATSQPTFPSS

Kd (BIRC4 BIR3): > 4000 nM | Kd (BIRC5): > 4000 nM | Kd (BIRC2 BIR1): 2420 nM and > 1000 nM | Kd (BIRC2 BIR3; Tracer K D, app, BIRC2-BIR3 domain, single domain): 50 ± 10 nM | Kd (BIRC2 BIR3; Tracer KD,app ± SEM, BIRC2 BIR3, single domain, n = 4): < 1000 nM | Kd (BIRC8): 1060 ± 350 nM | Kd (BIRC4 BIR2): > 4000 nM | Kd (BIRC2 BIR2): 2600 nM and > 1000 nM | Kd (BIRC3; Tracer K D, full-length BIRC3, full-length): < 250 nM | Kd (BIRC3; Tracer KD,app ± SEM, BIRC3, full-length, n = 4): 190 ± 30 nM | Kd (BIRC4 BIR1): 2750 nM and > 1000 nM | Kd (BIRC4; Tracer K D, full-length BIRC4, full-length): < 250 nM | Kd (BIRC4; Tracer KD,app ± SEM, BIRC4, full-length, n = 4): 40 nM | Kd (BIRC1 BIR[2]): 1790 nM and > 1000 nM | Kd (BIRC7 BIR): 540 nM and < 1000 nM | Kd (BIRC1 BIR1): < 4000 nM and > 4000 nM and > 1000 nM | Kd (BIRC2): < 250 nM and 20 nM | Kd (BIRC8 BIR): 2760 ± 340 nM | Kd (BIRC3 BIR3): 380 nM and < 1000 nM | Kd (BIRC7; Tracer K D, full-length BIRC7, full-length): < 250 nM | Kd (BIRC7; Tracer KD,app ± SEM, BIRC7, full-length, n = 4): 250 ± 20 nM | Kd (BIRC3 BIR2): 1670 nM and > 1000 nM | Kd (BIRC3 BIR1): 2310 nM and > 1000 nM
SMILES: CNC(C)C(=O)NC(C(=O)N1CCCC1c1nc(C(=O)c2cccc(OCCOCCOCCNC(=O)CCc3ccc4n3[B-](F)(F)[N+]3=C(c5ccc[nH]5)C=CC3=C4)c2)cs1)C1CCCCC1 (centres unmarked) [IAP Tracer]
